What was measured:
[1] = target: T1, Avi-KRAS G12D (2-169) GTP/RAF1 RBD-3xFLAG (51-131) (Homo sapiens, UniProt P01116, G12D); assay: Raf1-KRAS G12D-GTP disruption HTRF assay (Biological Example 3); format: binding; settings: KRAS G12D, GTP-loaded
T1 construct: Avi-KRAS G12D (2-169)
How it was run: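 Compounds were titrated 10-point, 3-fold from 30 μM against preformed KRAS-GTP:RAF1 RBD (51-131) complexes at 50 nM, using KRAS 2-169 as WT, G12C, G12D or G12V. After 1 h at room temperature in Tris pH 7.5 buffer with MgCl2 and 10% DMSO, time-resolved fluorescence was read. Results are percent activity versus DMSO.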

[2] = test system: GP2d cells (KRAS G12D); assay: Cell-based pERK HTRF assay in GP2d cell (Biological Example 2); settings: GP2d (KRAS G12D) cells
How it was run: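 60 min compound, 0.25% DMSO, 9-pt half-log curve from 1 μM or 100 nM; DMEM/10% FBS.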

T1 sequence (P01116 2-169 isoform P01116-2 G12D): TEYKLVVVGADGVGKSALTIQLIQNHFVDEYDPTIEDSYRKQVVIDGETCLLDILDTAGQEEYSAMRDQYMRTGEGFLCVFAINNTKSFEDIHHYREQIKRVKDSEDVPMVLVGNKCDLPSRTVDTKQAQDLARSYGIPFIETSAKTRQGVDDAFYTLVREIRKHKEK

| SMILES | IC50 [1] | IC50 ([2]; GP2d) | IC50 ([2]; GP2d, pERK HTRF, class symbols) | IC50 ([2]; pERK HTRF) | IC50 ([2]; GP2d, pERK HTRF) | IC50 [2] |
| --- | --- | --- | --- | --- | --- | --- |
| CCN(c1nc(OC[C@@]23CCCN2C[C@H](F)C3)nc2c(F)c(-c3ccc(F)c4sc(N)c(C#N)c34)c(C(F)(F)F)cc12)[C@H]1CCN(C(=O)C2C[C@@H]2F)C1 (stereo partly drawn) [Compound 692] | ≤ 100 nM | < 100 nM | < 100 nM |  |  |  |
| N#Cc1c(N)sc2c(F)ccc(-c3c(C(F)(F)F)cc4c(N5CCOCC5)nc(OC[C@@]56CCCN5C[C@H](F)C6)nc4c3F)c12 (single isomer, unassigned) [Compound 198] | 100 to 1000 nM | < 100 nM |  | < 100 nM |  |  |
| CCN(c1nc(OC[C@@]23CCCN2C[C@H](F)C3)nc2c(F)c(-c3ccc(F)c4sc(N)c(C#N)c34)c(C(F)(F)F)cc12)[C@H]1CCN(C(=O)CC(F)F)C1 (atropisomer, axis not shown) [Compound 611] | ≤ 100 nM | < 100 nM | < 100 nM |  |  |  |
| CCN(c1nc(OC[C@@]23CCCN2C[C@H](F)C3)nc2c(F)c(-c3ccc(F)c4sc(N)c(C#N)c34)c(C(F)(F)F)cc12)[C@H]1CCN(C(=O)N(C)C)[C@@H]1C (atropisomer, axis not shown) [Compound 749] | ≤ 100 nM | < 100 nM | < 100 nM |  |  |  |
| CCN(c1nc(OC[C@@]23CCCN2C[C@H](F)C3)nc2c(F)c(-c3ccc(F)c4sc(N)c(C#N)c34)c(C(F)(F)F)cc12)[C@H]1C[C@@H]2CN(C)C(=O)N2C1 (atropisomer, axis not shown) [Compound 605] | 100 to 1000 nM | < 100 nM | < 100 nM |  |  |  |
| CCN(c1nc(OC[C@@]23CCCN2C[C@H](F)C3)nc2c(F)c(-c3ccc(F)c4sc(N)c(C#N)c34)c(C(F)(F)F)cc12)[C@H]1C[C@@H](C)N(C(=O)[C@H]2CCO2)C1 (atropisomer, axis not shown) [Compound 752] | 100 to 1000 nM | < 100 nM | < 100 nM |  |  |  |
| CCN(c1nc(OC[C@@]23CCCN2C[C@H](F)C3)nc2c(F)c(-c3ccc(F)c4sc(N)c(C#N)c34)c(C(F)(F)F)cc12)[C@H]1CCN(C(=O)O[C@@H]2CCOC2)C1 (atropisomer, axis not shown) [Compound 683] | ≤ 100 nM | < 100 nM | < 100 nM |  |  |  |
| CCN(c1nc(OC[C@@]23CCCN2C[C@H](F)C3)nc2c(F)c(-c3ccc(F)c4sc(N)c(C#N)c34)c(C(F)(F)F)cc12)[C@H]1CCN(C(=O)[C@@H]2C[C@@H]2C)C1 (atropisomer, axis not shown) [Compound 689] | 100 to 1000 nM | < 100 nM | < 100 nM |  |  |  |
| CCN(c1nc(OC[C@@]23CCCN2C[C@H](F)C3)nc2c(F)c(-c3ccc(F)c4sc(N)c(C#N)c34)c(C(F)(F)F)cc12)[C@H]1CC(=O)N(CC(F)F)C1 (atropisomer, axis not shown) [Compound 613] | ≤ 100 nM | < 100 nM | < 100 nM |  |  |  |
| CCN(c1nc(OC[C@@]23CCCN2C[C@H](F)C3)nc2c(F)c(-c3ccc(F)c4sc(N)c(C#N)c34)c(C(F)(F)F)cc12)[C@H]1CC(=O)N(C)C1 (atropisomer, axis not shown) [Compound 614] | 100 to 1000 nM | < 100 nM | < 100 nM |  |  |  |
| CCN(c1nc(OC[C@@]23CCCN2C[C@H](F)C3)nc2c(F)c(-c3ccc(F)c4sc(N)c(C#N)c34)c(C(F)(F)F)cc12)[C@@H]1CCN(C(=O)C2CC2)C1 [Compound 329] | 100 to 1000 nM | < 100 nM |  |  | < 100 nM |  |
| CCN(c1nc(OC[C@@]23CCCN2C[C@H](F)C3)nc2c(F)c(-c3ccc(F)c4sc(N)c(C#N)c34)c(C(F)(F)F)cc12)[C@H]1CCN(C(=O)C2CC2)C1 [Compound 331] | 100 to 1000 nM | < 100 nM |  |  | < 100 nM |  |
| N#Cc1c(N)sc2c(F)ccc(-c3c(C(F)(F)F)cc4c(N5C[C@H]6C[C@@H]5CO6)nc(OC[C@@]56CCCN5C[C@H](F)C6)nc4c3F)c12 (single isomer, unassigned) [Compound 287] | 100 to 1000 nM | < 100 nM |  |  | < 100 nM |  |
| N#Cc1c(N)sc2c(F)ccc(-c3c(C(F)(F)F)cc4c(N5C[C@H]6C[C@@H]5CO6)nc(OC[C@@]56CCCN5C[C@H](F)C6)nc4c3F)c12 [Compound 253, 2-amino-7-fluoro-4-[8-fluoro-2-[[(2R,8S)-2-fluoro-1,2,3,5,6,7-hexahydropyrrolizin-8-yl]methoxy]-4-[(1R,4R)-2-oxa-5-azabicyclo[2.2.1]heptan-5-yl]-6-(trifluoromethyl)quinazolin-7-yl]benzothiophene-3-carbonitrile] | 100 to 1000 nM | < 100 nM |  |  | < 100 nM |  |
| CCN(c1nc(OC[C@@]23CCCN2C[C@H](F)C3)nc2c(F)c(-c3ccc(F)c4sc(N)c(C#N)c34)c(C(F)(F)F)cc12)[C@H]1CCN(C(=O)c2ccns2)C1 (atropisomer, axis not shown) [Compound 726] | 100 to 1000 nM | < 100 nM | < 100 nM |  |  |  |
| CCN(c1nc(OC[C@]23CCCN2C[C@H](F)C3)nc2c(F)c(-c3ccc(F)c4sc(N)c(C#N)c34)c(C(F)(F)F)cc12)[C@H]1CCN(C(=O)C(C)C)C1 [Compound 705] | 100 to 1000 nM | < 100 nM | < 100 nM |  |  |  |
| CCN(c1nc(OC[C@@]23CCCN2C[C@H](F)C3)nc2c(F)c(-c3ccc(F)c4sc(N)c(C#N)c34)c(C(F)(F)F)cc12)[C@H]1C[C@H]2CCC(=O)N2C1 (atropisomer, axis not shown; (aR)) [Compound 573, 2-amino-4-((S)-4-(ethyl((2S,7aR)-5-oxohexahydro-1H-pyrrolizin-2-yl)amino)-8-fluoro-2-(((2R,7aS)-2-fluorotetrahydro-1H-pyrrolizin-7a(5H)-yl)methoxy)-6-(trifluoromethyl)quinazolin-7-yl)-7-fluorobenzo[b]thiophene-3-carbonitrile] | ≤ 100 nM | < 100 nM | < 100 nM |  |  |  |
| CC(=O)N1CC(N(C)c2nc(OCC34CCCN3CC(F)C4)nc3c(F)c(-c4ccc(F)c5sc(N)c(C#N)c45)c(C(F)(F)F)cc23)CC1C (stereo not drawn) [Compound 291] | 100 to 1000 nM |  |  | < 100 nM |  | < 100 nM |
| CCN(c1nc(OC[C@@]23CCCN2C[C@H](F)C3)nc2c(F)c(-c3ccc(F)c4sc(N)c(C#N)c34)c(C(F)(F)F)cc12)[C@H]1CCN(C(=O)N2CC(OC)C2)C1 (atropisomer, axis not shown) [Compound 607] | ≤ 100 nM | < 100 nM | < 100 nM |  |  |  |
| N#Cc1c(N)sc2c(F)ccc(-c3c(C(F)(F)F)cc4c(N5CCn6nc(C(=O)N7CCOCC7)cc6C5)nc(OCC56CCCN5CC(F)C6)nc4c3F)c12 (stereo not drawn) [Compound 646] | 100 to 1000 nM | < 100 nM | < 100 nM |  |  |  |
| N#Cc1c(N)sc2c(F)ccc(-c3c(C(F)(F)F)cc4c(N5CCCOCC5)nc(OC[C@@]56CCCN5C[C@H](F)C6)nc4c3F)c12 [Compound 232] | 100 to 1000 nM | < 100 nM |  |  | < 100 nM |  |
| CCN(c1nc(OC[C@@]23CCCN2C[C@H](F)C3)nc2c(F)c(-c3ccc(F)c4sc(N)c(C#N)c34)c(C(F)(F)F)cc12)[C@H]1CCN(C(=O)[C@@H]2CCO2)C1 (atropisomer, axis not shown) [Compound 603] | ≤ 100 nM | < 100 nM | < 100 nM |  |  |  |
| C[C@@H]1[C@H](N(C)c2nc(OC[C@@]34CCCN3C[C@H](F)C4)nc3c(F)c(-c4ccc(F)c5sc(N)c(C#N)c45)c(C(F)(F)F)cc23)CCN1C(=O)C1CC1 (atropisomer, axis not shown) [Compound 333] | 100 to 1000 nM | < 100 nM |  | < 100 nM |  |  |
| CCN(c1nc(OC[C@@]23CCCN2C[C@H](F)C3)nc2c(F)c(-c3ccc(F)c4sc(N)c(C#N)c34)c(C(F)(F)F)cc12)[C@@H]1CCN(C(=O)C(C)C)C1 [Compound 328] | 100 to 1000 nM | < 100 nM |  |  | < 100 nM |  |
| C[C@H](c1cccnc1N)N(C)c1nc(OC[C@@]23CCCN2C[C@H](F)C3)nc2c(F)c(-c3ccc(F)c4sc(N)c(C#N)c34)c(C(F)(F)F)cc12 (atropisomer, axis not shown) [Compound 600] | ≤ 100 nM | < 100 nM | < 100 nM |  |  |  |
| N#Cc1c(N)sc2c(F)ccc(-c3c(C(F)(F)F)cc4c(N5CC6CC(C5)O6)nc(OC[C@@]56CCCN5C[C@H](F)C6)nc4c3F)c12 [Compound 145] | 100 to 1000 nM | < 100 nM |  |  | < 100 nM |  |
